Measured values reported in patent publication US20160310454A1, “LIVER X RECEPTOR AGONISTS IN THE TREATMENT OF EMPHYSEMA” (priority 2013, published 2016).
Entries after “also recorded” stand apart in the source; their conditions may differ.

Legend:
[1] = target: T1, farnesoid X receptor (FXR (NR4H4)) (Homo sapiens, UniProt Q96RI1); settings: cited from earlier work
T1 sequence (Q96RI1 1-486): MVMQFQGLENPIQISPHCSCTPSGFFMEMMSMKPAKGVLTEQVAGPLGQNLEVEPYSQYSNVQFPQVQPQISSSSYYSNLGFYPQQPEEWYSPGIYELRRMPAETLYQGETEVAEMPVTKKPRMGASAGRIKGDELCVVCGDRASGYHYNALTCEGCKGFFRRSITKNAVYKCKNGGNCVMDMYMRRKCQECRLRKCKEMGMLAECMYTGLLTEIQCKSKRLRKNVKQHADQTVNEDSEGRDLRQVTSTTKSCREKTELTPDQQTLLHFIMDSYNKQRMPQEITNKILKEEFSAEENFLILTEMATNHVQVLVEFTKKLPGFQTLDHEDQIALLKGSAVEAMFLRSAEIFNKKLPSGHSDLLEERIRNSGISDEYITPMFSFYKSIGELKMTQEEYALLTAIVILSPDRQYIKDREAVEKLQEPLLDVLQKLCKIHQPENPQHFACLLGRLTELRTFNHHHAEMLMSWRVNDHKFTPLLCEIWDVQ

[2] = tested on: mice exposed to cigarette smoke for 10 days; assay: Acute 10 day cigarette smoke exposure model with LXR agonist IP; assay type: in vivo, mouse
Experimental: Mice were chronically exposed to smoke in a specially designed chamber (Teague Enterprise, CA). 8 weeks old mice were smoke-exposed for 5 hours a day, 5 days a week for 10 days and 5 months. The total particulate matter (TPM) within the smoking chamber was regulated so that the mice receive a TPM of 100 mg/m^3. TPM was determined by a gravimetric analysis of filter samples taken during the exposure period. Mice (C57BL/6, AKR/J strain) were smoke exposed for 10 days and 5 months and compared to room air exposed controls.
The BAL fluid was collected by perfusing the lungs with 2 ml of phosphate buffered saline (PBS). The samples were then centrifuged to pellet down the cells and re-suspended in 300 μl of PBS. To obtain the total cell count, cells were counted using a hematocytometer for which, 10 μl of the sample was utilized. To obtain the differential cell count, the slides were prepared using a cytopsin. 150 μl of sample was taken to prepare slides. These slides were stained using Hematoxylin and Eosin (H&E) and a number of regular and foamy like macrophages and lymphocytes counted under the microscope. A foamy like phenotype (Hirama et al., 2007) was identified by examining the sequential increase in macrophage size. Lipid staining was not performed.
Total RNA was extracted from specimens of lung tissue 0.3 cm^3 in size with the use of the RNeasy kit (Qiagen, Germantown, Md.) (Goldklang et al., 2012). The RNA was then further processed to obtain cDNA, which was used for Real Time (RT) PCR analysis. TaqMan gene expression assays (Applied Biosystems, Carlsbad, Calif.) were performed to assess gene-transcript levels with the use of an ABI Prism 7900HT Sequence Detection System (Applera, Foster City, Calif.) (Goldklang et al., 2012). The following primers were used to check the respective gene expression: ABCA1 (Hs01059118_m1), ABCG1 (Hs00245154_m1), MMP-9 (Mm00442991_m1), IL-1β (Mm00434227_g1), TNF-α (Mm00443260_g1) and GAPDH (4352932E) from TaqMan Gene Expression Assays, Applied Biosystems, CA. β-actin was used as a control since it is a housekeeping gene.
To determine if the mechanisms identified in vitro contributed to changes in smoke induced lung inflammation in vivo, cigarette smoke studies were performed in mice. The treatment of mice exposed to cigarette smoke in an acute 10 day model with 25 mg/kg of intraperitoneal (IP) injections of an LXR agonist daily during the last 4 days of exposure was examined. […] Treatment with the LXR agonist was capable of blocking the already established inflammation and decreased the total inflammatory cell counts (FIG. 15A.). Furthermore, the cigarette smoke induced TNFα protein expression in the BAL was abrogated in mice treated with the LXR agonist (FIG. 15B.). […] Most importantly, cigarette smoke induced MMP-9 expression and activity in the BAL were inhibited by the treatment with the LXR agonist (FIG. 15C-D.), which correlated with inhibition of inflammation and the inflammatory driven increase in TNFα.

[3] = 25 mg/kg IP, 10 days smoke exposure, Luminex
[4] = 25 mg/kg IP, 10 days smoke exposure, listed as LXR agonist

Q: With `O=S(=O)(c1ccccc1)N(CC(F)(F)F)c1ccc(C(O)(C(F)(F)F)C(F)(F)F)cc1` [T0901317, N-(2,2,2-trifluoroethyl)-N-[4-[2,2,2-trifluoro-1-hydroxy-1-(trifluoromethyl)ethyl]phenyl]-benzenesulfonamide] as the compound, how does the “activation of FXR compared with chenodeoxycholic acid” value [1] read?
A: more potently than a natural bile acid FXR ligand, chenodeoxycholic acid

Q: And the “potency as activator of LXR versus FXR” value [1]?
A: much more potent activator of LXR than FXR

Q: What about the “level of ABCA1 in BAL (alveolar macrophages)” value ([2]; 25 mg/kg IP daily, last 4 days of 10 day smoke exposure, listed as LXR agonist) of the same compound?
A: re-expression; also recorded: successfully increased

Q: And the “pulmonary inflammation: total inflammatory cell counts in BAL” value ([2]; 25 mg/kg IP, 10 days smoke exposure)?
A: resolve

Q: What about the “cigarette smoke induced TNFα protein expression in the BAL” value [2, 3] of the same compound?
A: abrogated

Q: What about the “smoke induced increase in IL-1β, IL-17, IFNγ and MCP-1 in the lung tissue” value [2, 3] of the same compound?
A: inhibited

Q: What about the “cigarette smoke induced MMP-9 expression and activity in the BAL” value [2, 4] of the same compound?
A: inhibition; also recorded: inhibited

Q: What about the “mRNA levels of TNFα in BAL alveolar macrophages” value [2, 4] of the same compound?
A: inhibition; also recorded: decreased

Q: And the “pulmonary inflammation: total inflammatory cell counts in BAL” value [2, 4]?
A: significantly blocked; also recorded: decreased
